Source: patent US9326972B2, “Use of phenylmethimazoles, methimazole derivatives, and tautomeric cyclic thiones for the treatment of autoimmune/inflammatory diseases associated with toll-like receptor overexpression” (Ohio University, priority 2004, dated 2016)
Marks after values point to notes of the source that are not given here.

Columns and labels:
NF-κB p65/p50 complex = assay: EMSA of NF-κB p65/p50 complex formation in FRTL-5 thyrocytes; type: cell-based, rat; conditions: FRTL-5, EMSA, 6 hours
IRF-1 = assay: LPS-increased IRF-1 mRNA and IRF-1 binding to MxISRE in RAW 264.7 macrophages (Northern, EMSA); type: cell-based, mouse
Text: IRF-1 is a transcription factor which is induced upon LPS stimulation of macrophages through a Stat1 dependent mechanism (Y. Ohmori, et al., J Leukoc Biol, 69:598-604 (2001)). Therefore IRF-1 provides another example of a response that may be affected by an inhibitor of LPS induced IFN-β signaling. Unlike other molecules studied thus far, IRF-1 acts as a transcription factor to directly bind to DNA to enhance transcription of other genes such as iNOS (R. Kamijo, et al., Science, 263:1612-5, (1994)). In macrophages treated with LPS, IRF-1 is required for the transcriptional control of the iNOS gene (R. Kamijo, et al., Science, 263:1612-5 (1994)). […] Typical LPS induction for each time point is observed in each LPS plus DMSO lane (FIG. 14A, lanes 2, 5, 8). […] The decrease by C10 is much greater than by MMI (FIG. 14A, lanes 6 and 9 vs 7 and 10, respectively). […] Specificity was observed upon incubation of extracts with unlabeled […] probe (FIG. 14B, lane 9). […] ID NO:23) and [NT] (469 bp) (SEQ ID NO:24); […] ID NO:25) and [NT] […] ID NO:27) and [NT] […] ID NO:29) and [NT] (586 bp) (SEQ ID NO:30). […] EMSA in RAW 264.7 cells: Nuclear extracts were prepared using NE-PER® extraction reagents (Pierce Chemical Co.; Rockford, Ill.) in the presence of a protease inhibitor cocktail (PMSF, Leupeptin, Pepstatin-A). Oligonucleotide sense strand probe sequences were as follows […] probe: [NT] […]

horses = assay: Horses operated to remove necrotic bowel; type: in vivo, horse; conditions: 2 mg/kg C10 pre-op and post-op for three days, plus antibiotics
Experimental: Effect of Phenylmethimazole (C10) on horses subjected to operative procedures to repair necrotic bowels: A group of animals were also subjected to an operative procedure that clamped vessels in a small portion of bowel. Within 2 days, bowel necrosis and peritonitis ensued. At that point animals were re-operated to remove the necrotic bowel and treated with 2 mg/kg C10 or DMSO alone pre-op and post-op for three days. […] Both groups had the same antibiotic therapy as used above.

ApoE−/− mice = assay: Atherosclerosis in ApoE−/− mice fed a high fat diet; type: in vivo, mouse; set-up: key to CORONARY AND MYOCARDIAL VESSELS INFLAMMATION / AORTIC INFLAMMATION: ++++ for severe; + for very mild
Experimental: C10 reduced vascular inflammation in ApoE−/− mice fed a high fat diet: C10 was given i.p. (1 mg/kg) every other day to mice for 8 weeks. Control mice received DMSO alone. Mice were sacrificed at 8 weeks and histopathology examined in different tissues as determined by hematoxylin and eosin staining. In FIG. 15, sections from the base of the aorta in C10 treated (FIG. 15, Panel A) and untreated mice (FIG. 15, Panel B) are presented as well as sections of the coronary artery vasculature in C10 treated (FIG. 15, Panel C) and untreated mice (FIG. 15, Panel D). Vessels in the myocardium were also compared in C10 treated and untreated mice. […] Similarly in Panel D, the picture is representative of long sections of the coronary arteries that were nearly fully occluded with plaque in untreated mice whereas in C10 treated mice (Panel C), coronary arteries were largely unobstructed. Further, even where lesions were evident the lumens of vessels remained patent. Vessels within the myocardium were obstructed by plaque in the absence of C10 but patent and nearly free of plaque in the mice treated with C10. Data are representative of multiple slides taken from multiple animals.
Sections of the coronary arteries and myocardium as well as the base of the aorta were compared in untreated mice vs. C10 treated mice both for extent of lesion, quality of lesion, overexpressed TLR4, overexpressed VCAM-1, and extent of inflammation and plaque. Lesions and observations were qualitatively evaluated using ++++ for severe to + for very mild. […] Evaluation was double blinded.
Experimental animals: Twenty female Apo E−/− mice (Jackson Laboratory), 5 weeks old and weighing 14.5 g (average weight), were divided in 4 groups: (1) animals treated with 10% DMSO; (2) animals treated orally with C-10 in DMSO (1 mg/kg body weight); (3) animals treated I/P with C-10 in DMSO (same dose); and (4) control animals without treatment.
The treatment was done every other day (8 week expt) or every day. The animals were fed on a Western-type diet (TD 88137 from Harlan, Teklan). […]

mice = conditions: mouse, in vivo; cited from earlier work
[1] = C10 1 mg/kg every other day for 8 weeks

SMILES: Cn1c(-c2ccccc2)cnc1S [Compound C10, 5-Phenylmethimazole]
- effect on Poly (I:C)- or LPS-increased p65/p50 complex formation (NF-κB p65/p50 complex): did not have any significant effect
- LPS induced IRF-1 binding to the MxISRE element (EMSA) (IRF-1; RAW 264.7, LPS 1 μg/mL 2 hours): dose dependent reduction
- LPS-increased IRF-1 mRNA (IRF-1; RAW 264.7, LPS 1 μg/mL, 2 and 3 hours, Northern): strong reduction
- recovery after operation to remove necrotic bowel (horses): full recovery in all cases
- AORTIC INFLAMMATION (ApoE−/− mice; [1]): +*
- CORONARY AND MYOCARDIAL VESSELS INFLAMMATION (ApoE−/− mice; [1]): +*
- weight gain (ApoE−/− mice; C10 orally and ip, 4 weeks): decreased
- inflammatory response and survival in DSS induced colitis (mice): suppress the inflammatory response and improve survival
